Active and inactive are the calls of the source.
How the values were obtained:
[1] = growth suppression of PTEN-null colon cells, dose response, cell-based, HCT116 PTEN knockout (AID 1047); type: functional;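 note: HCT116 colon tumor cells with PTEN knocked out; cells exposed to compound for 60 hours before readout; potency for loss of cell viability measured by luminescence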
[2] = Luminescence Cell-Based Dose Retest to Confirm Inhibitors of Cancer Stem Cells. [Related pubchem assays (depositor defined):AID2717, AID2721]; type: functional; conditions: Homo sapiens
[3] = ADAM10 inhibitors, peptide cleavage, dose response, biochemical, QFRET (AID 743254);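 note: ADAM10 enzyme with the DM2 quenched FRET peptide as substrate; EDANS fluorescence gain as the protease cuts the substrate; inhibitor potency against ADAM10 proteolytic activity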
[4] = biological target: Disintegrin and metalloproteinase domain-containing protein 17 (Homo sapiens, UniProt P78536); experiment: ADAM17 protease inhibitors, dose response, counter-screen for ADAM10 exosite inhibitor project, biochemical, quenched FRET substrate (AID 743253)
[5] = growth suppression of beta-catenin-knockout colon cells, dose response, cell-based, HCT116, human colon tumor (AID 1045); type: functional;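 note: HCT116 colon tumor cells with beta catenin knocked out; cells exposed to compound for 60 hours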
[6] = biological target: Sphingosine 1-phosphate receptor 2 (Homo sapiens, UniProt O95136); experiment: Dose Response Cell Based Assay for Agonists of the S1P2 Receptor. [Related pubchem assays: 729, 736, 843 ]; type: functional
[7] = biological target: T1, Sentrin-specific protease 6 (Homo sapiens, UniProt Q9GZR1); type: functional;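 note: Luminescence-based dose-response confirmatory assay of SENP6 inhibition, following up an ultra-high-throughput screen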
T1 sequence (Q9GZR1 whole entry): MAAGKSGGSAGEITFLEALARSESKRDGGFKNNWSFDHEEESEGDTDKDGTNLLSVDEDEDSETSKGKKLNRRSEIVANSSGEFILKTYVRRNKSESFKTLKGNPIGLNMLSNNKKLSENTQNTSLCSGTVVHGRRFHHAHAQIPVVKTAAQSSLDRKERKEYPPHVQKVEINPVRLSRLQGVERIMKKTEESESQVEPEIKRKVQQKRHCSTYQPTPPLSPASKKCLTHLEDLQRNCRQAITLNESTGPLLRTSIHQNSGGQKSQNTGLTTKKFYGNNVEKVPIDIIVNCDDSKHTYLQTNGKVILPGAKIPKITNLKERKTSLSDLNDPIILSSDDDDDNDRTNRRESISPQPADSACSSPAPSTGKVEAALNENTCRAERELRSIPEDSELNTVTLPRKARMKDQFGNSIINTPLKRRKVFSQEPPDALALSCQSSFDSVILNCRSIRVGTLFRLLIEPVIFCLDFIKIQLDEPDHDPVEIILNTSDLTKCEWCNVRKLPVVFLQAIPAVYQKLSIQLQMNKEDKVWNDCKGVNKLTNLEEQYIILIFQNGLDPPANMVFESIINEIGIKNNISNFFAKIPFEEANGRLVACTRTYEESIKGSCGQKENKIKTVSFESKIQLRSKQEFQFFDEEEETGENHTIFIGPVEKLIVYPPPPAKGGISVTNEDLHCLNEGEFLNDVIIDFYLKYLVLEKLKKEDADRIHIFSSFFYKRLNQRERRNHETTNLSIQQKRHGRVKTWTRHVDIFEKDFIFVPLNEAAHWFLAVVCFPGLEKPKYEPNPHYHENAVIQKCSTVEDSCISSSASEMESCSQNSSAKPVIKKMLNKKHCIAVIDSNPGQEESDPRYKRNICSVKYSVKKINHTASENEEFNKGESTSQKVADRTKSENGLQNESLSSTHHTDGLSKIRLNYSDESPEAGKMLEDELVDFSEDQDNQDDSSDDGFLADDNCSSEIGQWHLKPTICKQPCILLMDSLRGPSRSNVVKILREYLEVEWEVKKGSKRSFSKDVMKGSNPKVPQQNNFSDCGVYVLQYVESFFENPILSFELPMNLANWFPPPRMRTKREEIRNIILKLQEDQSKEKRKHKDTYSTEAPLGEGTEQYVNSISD

Caspase-8 = Caspase-8 (Homo sapiens, UniProt Q14790); experiment: caspase-8 inhibition counter-screen, dose response, selectivity assay for caspase-6 inhibitor project, biochemical, Z-IETD-R110 fluorescence, cherry-picked samples (AID 743294)
Caspase-6 = biological target: T2, Caspase-6 (Homo sapiens, UniProt P55212); experiment: human caspase-6 inhibitors, dose response, biochemical, VEID-R110 fluorescence, cherry-pick (AID 720632)
T2 sequence (P55212 whole entry): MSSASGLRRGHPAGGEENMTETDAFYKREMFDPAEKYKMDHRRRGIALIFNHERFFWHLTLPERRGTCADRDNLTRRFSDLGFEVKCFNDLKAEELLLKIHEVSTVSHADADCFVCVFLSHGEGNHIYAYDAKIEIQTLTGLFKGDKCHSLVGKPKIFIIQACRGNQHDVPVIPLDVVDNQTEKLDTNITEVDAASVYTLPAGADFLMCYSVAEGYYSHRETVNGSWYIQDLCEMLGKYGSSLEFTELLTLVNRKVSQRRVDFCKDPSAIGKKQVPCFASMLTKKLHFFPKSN

Caspase-7 = Caspase-7 (Homo sapiens, UniProt P55210); experiment: human caspase-7 inhibitors, dose response, selectivity assay for caspase-6 inhibitor project, biochemical, DEVD-R110 fluorescence, cherry-pick (AID 743295)
Caspase-9 = Caspase-9 (Homo sapiens, UniProt P55211); experiment: caspase-9 enzyme inhibition, dose response, selectivity assay for caspase-6 inhibitor project, biochemical, fluorescence, plate reader, cherry-picked samples (AID 743293)
[8] = biological target: T3, Sentrin-specific protease 7 (Homo sapiens, UniProt Q9BQF6); type: functional;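 note: Luminescence-based dose-response confirmation of ultra-high-throughput screening hits, measuring inhibition of SENP7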
T3 sequence (Q9BQF6 whole entry): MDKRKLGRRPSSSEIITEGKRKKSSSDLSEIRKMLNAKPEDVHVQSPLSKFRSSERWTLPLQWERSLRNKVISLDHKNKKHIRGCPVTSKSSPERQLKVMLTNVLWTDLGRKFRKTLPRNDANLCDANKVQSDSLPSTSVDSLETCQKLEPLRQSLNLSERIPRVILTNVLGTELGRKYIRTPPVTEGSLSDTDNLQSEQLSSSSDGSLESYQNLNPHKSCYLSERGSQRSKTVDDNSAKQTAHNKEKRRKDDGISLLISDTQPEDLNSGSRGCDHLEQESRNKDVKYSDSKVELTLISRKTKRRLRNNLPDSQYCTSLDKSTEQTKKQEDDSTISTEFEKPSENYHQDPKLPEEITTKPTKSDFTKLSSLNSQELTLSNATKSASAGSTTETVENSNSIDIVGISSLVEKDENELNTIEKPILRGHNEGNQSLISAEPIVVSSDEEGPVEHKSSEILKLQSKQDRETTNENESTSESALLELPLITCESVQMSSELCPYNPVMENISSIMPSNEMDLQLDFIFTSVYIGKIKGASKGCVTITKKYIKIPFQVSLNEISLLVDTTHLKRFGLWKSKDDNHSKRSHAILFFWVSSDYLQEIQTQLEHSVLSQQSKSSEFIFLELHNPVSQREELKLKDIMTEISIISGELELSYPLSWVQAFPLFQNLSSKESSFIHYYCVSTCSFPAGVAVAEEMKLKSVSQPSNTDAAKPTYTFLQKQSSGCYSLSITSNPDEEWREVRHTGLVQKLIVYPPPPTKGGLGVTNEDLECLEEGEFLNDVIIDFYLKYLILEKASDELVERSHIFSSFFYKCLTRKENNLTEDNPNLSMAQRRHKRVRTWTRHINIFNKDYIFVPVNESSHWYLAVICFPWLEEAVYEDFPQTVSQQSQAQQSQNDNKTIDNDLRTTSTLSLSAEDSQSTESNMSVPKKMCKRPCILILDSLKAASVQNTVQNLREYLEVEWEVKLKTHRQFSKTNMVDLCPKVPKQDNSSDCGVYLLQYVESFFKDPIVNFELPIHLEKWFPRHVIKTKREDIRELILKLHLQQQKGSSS

[9] = biological target: T4, Mitochondrial peptide methionine sulfoxide reductase (Bos taurus, UniProt P54149); experiment: Absorbance-based biochemical high throughput dose response assay for activators of Methionine sulfoxide reductase A (MsrA).; type: functional
T4 sequence (P54149 whole entry): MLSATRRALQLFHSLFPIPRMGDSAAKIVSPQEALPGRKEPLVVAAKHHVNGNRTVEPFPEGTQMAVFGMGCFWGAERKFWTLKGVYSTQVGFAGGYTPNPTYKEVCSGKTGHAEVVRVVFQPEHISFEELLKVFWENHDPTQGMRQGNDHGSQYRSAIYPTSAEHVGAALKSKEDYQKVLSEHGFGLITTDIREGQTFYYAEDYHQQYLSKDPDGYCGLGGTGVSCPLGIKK

Caspase-3 = biological target: T5, Caspase-3 (Homo sapiens, UniProt P42574); type: functional;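 note: Dose-response selectivity test against caspase-3 for candidate inhibitors of sentrin-specific proteases (SENPs)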
T5 sequence (P42574 whole entry): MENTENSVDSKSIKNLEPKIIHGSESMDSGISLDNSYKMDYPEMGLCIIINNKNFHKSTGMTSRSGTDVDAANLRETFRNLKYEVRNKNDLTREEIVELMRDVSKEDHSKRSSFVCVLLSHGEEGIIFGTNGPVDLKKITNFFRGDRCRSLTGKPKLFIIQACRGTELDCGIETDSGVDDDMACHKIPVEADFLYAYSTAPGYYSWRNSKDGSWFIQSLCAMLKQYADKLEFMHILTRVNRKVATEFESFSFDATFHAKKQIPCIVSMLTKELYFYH

[10] = biological target: T6, Sentrin-specific protease 8 (Homo sapiens, UniProt Q96LD8); type: functional;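 note: luminescence read-out of SENP8 inhibition, dose-response confirmation following an ultra-high-throughput screen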
T6 sequence (Q96LD8 whole entry): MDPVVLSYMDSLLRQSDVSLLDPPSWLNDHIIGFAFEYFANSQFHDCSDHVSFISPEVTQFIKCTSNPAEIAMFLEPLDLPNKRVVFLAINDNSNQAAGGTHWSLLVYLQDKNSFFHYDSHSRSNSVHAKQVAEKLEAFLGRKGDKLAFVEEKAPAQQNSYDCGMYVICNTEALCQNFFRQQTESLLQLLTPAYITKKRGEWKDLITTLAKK

[11] = biological target: T7, Tyrosine-protein phosphatase non-receptor type 7 (Homo sapiens, UniProt P35236); experiment: inhibitors of human HePTP phosphatase, […], biochemical, absorbance, leukemia target (AID 521); type: functional
T7 sequence (P35236 whole entry): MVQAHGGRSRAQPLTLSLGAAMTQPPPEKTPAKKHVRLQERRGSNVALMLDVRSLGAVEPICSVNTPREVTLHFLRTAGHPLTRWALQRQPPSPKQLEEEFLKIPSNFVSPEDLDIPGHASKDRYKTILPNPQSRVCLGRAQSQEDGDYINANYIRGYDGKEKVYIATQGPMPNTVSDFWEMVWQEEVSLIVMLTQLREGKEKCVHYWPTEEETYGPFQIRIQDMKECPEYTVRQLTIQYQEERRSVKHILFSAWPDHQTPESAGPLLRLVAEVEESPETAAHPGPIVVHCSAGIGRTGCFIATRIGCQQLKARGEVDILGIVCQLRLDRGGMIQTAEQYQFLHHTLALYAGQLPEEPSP

[12] = biological target: Metabotropic glutamate receptor 7 (Homo sapiens, UniProt Q14831); experiment: mGlu7 positive allosteric modulators, dose response, cell-based, calcium mobilization, Galpha15 (AID 743384); type: functional
[13] = biological target: T8, Polyadenylate-binding protein 1 (Homo sapiens, UniProt P11940); experiment: PABP1 MLLE–PAM2 interaction inhibitors, dose response, miRNA deadenylation inhibitor project, biochemical, fluorescence polarization, Cy5-PAM2 peptide, secondary (AID 602260); type: functional; conditions: read-out: IC50_Mean
[14] = biological target: T8, Polyadenylate-binding protein 1; experiment: PABP1 MLLE–PAM2 binding inhibitor potency, dose response, biochemical, fluorescence polarization, FITC-PAM2 peptide (AID 602259); type: functional; conditions: read-out: IC50_Mean

T8 sequence (P11940 whole entry): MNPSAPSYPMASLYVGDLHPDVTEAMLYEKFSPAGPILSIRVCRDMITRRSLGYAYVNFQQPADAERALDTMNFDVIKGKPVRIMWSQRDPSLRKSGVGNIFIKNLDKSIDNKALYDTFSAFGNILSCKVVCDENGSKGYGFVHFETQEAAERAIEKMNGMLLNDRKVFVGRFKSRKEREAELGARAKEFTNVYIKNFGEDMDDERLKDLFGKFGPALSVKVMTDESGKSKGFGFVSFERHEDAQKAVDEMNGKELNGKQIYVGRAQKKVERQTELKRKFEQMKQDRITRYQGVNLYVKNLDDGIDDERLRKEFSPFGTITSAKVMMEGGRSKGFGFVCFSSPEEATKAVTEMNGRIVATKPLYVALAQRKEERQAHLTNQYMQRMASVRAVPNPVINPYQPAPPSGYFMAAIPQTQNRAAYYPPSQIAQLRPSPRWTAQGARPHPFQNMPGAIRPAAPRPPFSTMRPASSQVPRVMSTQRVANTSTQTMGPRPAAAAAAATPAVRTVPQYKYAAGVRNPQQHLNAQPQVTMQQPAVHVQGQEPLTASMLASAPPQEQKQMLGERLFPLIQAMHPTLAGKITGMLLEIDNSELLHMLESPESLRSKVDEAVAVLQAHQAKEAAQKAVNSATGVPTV
Chain of Caspase-8 (Q14790 217-374 limits assumed): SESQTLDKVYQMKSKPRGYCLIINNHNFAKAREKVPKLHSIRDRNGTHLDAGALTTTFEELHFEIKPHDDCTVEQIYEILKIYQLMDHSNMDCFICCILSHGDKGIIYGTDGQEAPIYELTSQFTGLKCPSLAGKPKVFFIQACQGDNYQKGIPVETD
Chain of Caspase-8 (Q14790 385-479 limits assumed): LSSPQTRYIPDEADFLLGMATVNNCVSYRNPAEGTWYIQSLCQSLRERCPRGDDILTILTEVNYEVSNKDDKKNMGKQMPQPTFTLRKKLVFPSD
Chain of Caspase-9 (P55211 1-315 limits assumed): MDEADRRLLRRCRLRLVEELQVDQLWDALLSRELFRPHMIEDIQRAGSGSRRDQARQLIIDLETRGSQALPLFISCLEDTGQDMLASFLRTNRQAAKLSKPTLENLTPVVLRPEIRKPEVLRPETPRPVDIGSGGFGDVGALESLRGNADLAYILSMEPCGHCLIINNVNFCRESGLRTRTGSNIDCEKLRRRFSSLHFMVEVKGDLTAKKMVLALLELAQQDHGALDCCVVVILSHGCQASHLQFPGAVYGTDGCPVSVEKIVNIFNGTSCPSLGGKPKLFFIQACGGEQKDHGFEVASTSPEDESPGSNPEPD
Chain of Caspase-9 (P55211 331-416 limits assumed): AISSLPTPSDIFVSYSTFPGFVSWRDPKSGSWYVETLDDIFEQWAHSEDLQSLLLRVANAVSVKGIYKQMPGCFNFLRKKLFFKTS
Chain of Sphingosine 1-phosphate receptor 2 (O95136 whole entry): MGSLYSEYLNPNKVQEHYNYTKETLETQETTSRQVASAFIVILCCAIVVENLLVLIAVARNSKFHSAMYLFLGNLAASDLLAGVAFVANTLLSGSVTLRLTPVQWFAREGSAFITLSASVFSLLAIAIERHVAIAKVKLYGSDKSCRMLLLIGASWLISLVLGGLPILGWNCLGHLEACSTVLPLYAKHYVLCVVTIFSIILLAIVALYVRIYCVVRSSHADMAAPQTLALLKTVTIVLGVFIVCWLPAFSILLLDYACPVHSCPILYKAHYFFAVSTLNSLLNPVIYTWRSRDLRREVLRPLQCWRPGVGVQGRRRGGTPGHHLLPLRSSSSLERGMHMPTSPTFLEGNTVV
Chain of Disintegrin and metalloproteinase domain-containing protein 17 (P78536 whole entry, the tested form may be a part): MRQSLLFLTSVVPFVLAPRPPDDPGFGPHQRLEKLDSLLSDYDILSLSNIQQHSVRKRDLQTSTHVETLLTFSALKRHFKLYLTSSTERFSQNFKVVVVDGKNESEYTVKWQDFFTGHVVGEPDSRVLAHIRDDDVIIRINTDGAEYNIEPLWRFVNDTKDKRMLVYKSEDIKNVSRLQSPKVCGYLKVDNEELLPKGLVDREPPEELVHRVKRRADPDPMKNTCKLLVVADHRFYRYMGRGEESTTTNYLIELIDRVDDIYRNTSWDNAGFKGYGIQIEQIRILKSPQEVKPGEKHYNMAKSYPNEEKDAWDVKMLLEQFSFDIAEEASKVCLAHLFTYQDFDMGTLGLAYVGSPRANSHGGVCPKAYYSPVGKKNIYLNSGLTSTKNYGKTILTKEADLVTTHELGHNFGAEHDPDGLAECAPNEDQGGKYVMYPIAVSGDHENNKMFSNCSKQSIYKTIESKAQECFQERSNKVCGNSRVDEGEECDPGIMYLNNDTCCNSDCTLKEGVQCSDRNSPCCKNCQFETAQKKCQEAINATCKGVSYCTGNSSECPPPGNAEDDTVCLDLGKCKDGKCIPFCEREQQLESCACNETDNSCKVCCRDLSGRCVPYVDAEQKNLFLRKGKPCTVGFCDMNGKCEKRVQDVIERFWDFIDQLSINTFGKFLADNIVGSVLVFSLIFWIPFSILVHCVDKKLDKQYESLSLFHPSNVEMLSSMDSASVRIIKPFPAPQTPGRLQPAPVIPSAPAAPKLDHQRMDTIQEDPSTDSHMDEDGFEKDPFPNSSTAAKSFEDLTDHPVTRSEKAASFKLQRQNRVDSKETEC
Chain of Caspase-7 (P55210 24-198 limits assumed): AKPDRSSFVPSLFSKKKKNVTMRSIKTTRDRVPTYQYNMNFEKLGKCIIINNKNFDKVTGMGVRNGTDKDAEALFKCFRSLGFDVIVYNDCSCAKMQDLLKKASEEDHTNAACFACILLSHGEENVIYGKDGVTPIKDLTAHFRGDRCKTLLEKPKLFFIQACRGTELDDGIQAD
Chain of Caspase-7 (P55210 207-303 limits assumed): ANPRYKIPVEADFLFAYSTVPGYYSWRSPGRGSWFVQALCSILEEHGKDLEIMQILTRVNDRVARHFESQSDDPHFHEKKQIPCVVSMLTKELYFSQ
Chain of Metabotropic glutamate receptor 7 (Q14831 whole entry): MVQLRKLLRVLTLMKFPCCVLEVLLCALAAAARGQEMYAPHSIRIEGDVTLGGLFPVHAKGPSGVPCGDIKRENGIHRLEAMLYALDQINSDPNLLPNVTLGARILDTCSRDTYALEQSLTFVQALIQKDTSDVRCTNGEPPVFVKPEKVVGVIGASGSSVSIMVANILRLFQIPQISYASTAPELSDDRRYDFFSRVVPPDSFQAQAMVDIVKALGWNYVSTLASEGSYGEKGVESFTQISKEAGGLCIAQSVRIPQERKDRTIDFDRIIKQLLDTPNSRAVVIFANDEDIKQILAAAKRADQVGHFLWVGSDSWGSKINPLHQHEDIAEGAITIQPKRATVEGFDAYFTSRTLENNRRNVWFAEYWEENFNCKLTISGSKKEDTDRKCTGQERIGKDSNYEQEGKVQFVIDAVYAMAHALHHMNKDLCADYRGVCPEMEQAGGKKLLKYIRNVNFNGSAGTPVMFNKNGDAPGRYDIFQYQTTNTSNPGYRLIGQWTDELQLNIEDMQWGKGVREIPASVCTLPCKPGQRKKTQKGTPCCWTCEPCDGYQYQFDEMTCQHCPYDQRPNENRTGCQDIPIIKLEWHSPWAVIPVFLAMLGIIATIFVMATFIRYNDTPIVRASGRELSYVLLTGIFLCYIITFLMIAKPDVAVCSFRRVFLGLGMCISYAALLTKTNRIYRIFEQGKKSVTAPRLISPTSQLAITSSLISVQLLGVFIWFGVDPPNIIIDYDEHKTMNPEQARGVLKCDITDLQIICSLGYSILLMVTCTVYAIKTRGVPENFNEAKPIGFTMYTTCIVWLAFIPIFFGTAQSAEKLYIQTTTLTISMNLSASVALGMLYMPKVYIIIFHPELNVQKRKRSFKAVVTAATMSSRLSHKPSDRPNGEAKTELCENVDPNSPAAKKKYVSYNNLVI

Structure (SMILES): COc1ccc(C(c2c[nH]c3ccccc23)c2c[nH]c3ccccc23)cc1O
- EC50 [1]: 31 µM (active)
- AC50 [2]: 4.09 µM (active)
- IC50 [3]: > 69.5 µM (inactive)
- IC50 [4]: > 69.5 µM (inactive)
- EC50 [5]: 558 µM (active)
- EC50 [6]: > 50 µM (not active)

Structure (SMILES): O=C(COC(=O)c1ccc([N+](=O)[O-])s1)Nc1ccccc1
- IC50 [7]: 4.39 µM (active)
- AC50 (Caspase-8): 25.5 µM (active)
- AC50 (Caspase-6): 2.49 µM (active)
- AC50 (Caspase-7): 17.4 µM (active)
- AC50 (Caspase-9): 25.5 µM (active)
- IC50 [8]: 6.5 µM (active)
- EC50 [9]: 57.5 µM (inactive)
- IC50 (Caspase-3): 8.76 µM (active)
- IC50 [10]: 4.04 µM (active)

Structure (SMILES): O=C(NCc1ccc(F)cc1)c1cc2ccccn2n1
- IC50 [11]: > 100 µM (not active)

Structure (SMILES): CC(=O)Nc1ccc(SCC(=O)c2cc(C)n(-c3ccccc3F)c2C)cc1
- EC50 [12]: 2.4 µM (active)
- IC50 [13]: > 66 µM (inactive)
- IC50 [14]: > 66 µM (inactive)

— ChEMBL document CHEMBL1201862, “PubChem BioAssay data set” (2004)
